Measurements taken from ChEMBL document CHEMBL1150788, “In vitro susceptibility of Sporothrix schenckii to six antifungal agents determined using three different methods” (2007).
Values after ≈ are worked out from the molar mass of the structure shown.

What was measured:
Assay type in all cases: functional
[1] = tested on: Sporothrix schenckii; test: Antifungal activity against Sporothrix schenckii P1621 isolate from cutaneous-lymphatic sporotrichosis patient after 72 hrs by modified NCCLS M38-A method
[2] = tested on: Sporothrix schenckii; test: Antifungal activity against Sporothrix schenckii PSSA81 isolate from cutaneous-lymphatic sporotrichosis patient after 72 hrs by modified NCCLS M38-A method
[3] = tested on: Sporothrix schenckii; test: Antifungal activity against Sporothrix schenckii PGAC0016 isolate from cutaneous-lymphatic sporotrichosis patient after 72 hrs by modified NCCLS M38-A method
[4] = tested on: Aspergillus flavus; test: Antifungal activity against Aspergillus flavus ATCC 204304 […] after 72 hrs by modified NCCLS M38-A method; settings: ATCC 204304, 72 h
[5] = tested on: Sporothrix schenckii; test: Antifungal activity against Sporothrix schenckii PJRC002 isolate from cutaneous-lymphatic sporotrichosis patient after 72 hrs by Sensititre YeastOne method
[6] = tested on: Sporothrix schenckii; test: Antifungal activity against Sporothrix schenckii MRSS4 isolate from cutaneous-lymphatic sporotrichosis patient after 72 hrs by Sensititre YeastOne method
[7] = tested on: Sporothrix schenckii; test: Antifungal activity against Sporothrix schenckii P14954 isolate from cutaneous-lymphatic sporotrichosis patient after 72 hrs by modified NCCLS M38-A method
[8] = tested on: Sporothrix schenckii; test: Antifungal activity against Sporothrix schenckii P25013 isolate from cutaneous-lymphatic sporotrichosis patient after 72 hrs by Sensititre YeastOne method
[9] = tested on: Sporothrix schenckii; test: Antifungal activity against Sporothrix schenckii SSA29 isolate from cutaneous-lymphatic sporotrichosis patient after 72 hrs by modified NCCLS M38-A method
[10] = tested on: Sporothrix schenckii; test: Antifungal activity against Sporothrix schenckii isolate from cutaneous-lymphatic sporotrichosis patient after 72 hrs by modified NCCLS M38-A method
[11] = tested on: Sporothrix schenckii; test: Antifungal activity against Sporothrix schenckii P30915 isolate from cutaneous-lymphatic sporotrichosis patient after 72 hrs by Sensititre YeastOne method
[12] = tested on: Sporothrix schenckii; test: Antifungal activity against Sporothrix schenckii P30915 isolate from cutaneous-lymphatic sporotrichosis patient after 72 hrs by modified NCCLS M38-A method
[13] = tested on: Sporothrix schenckii; test: Antifungal activity against Sporothrix schenckii P25013 isolate from cutaneous-lymphatic sporotrichosis patient after 72 hrs by modified NCCLS M38-A method
[14] = tested on: Sporothrix schenckii; test: Antifungal activity against Sporothrix schenckii P0019 isolate from cutaneous-lymphatic sporotrichosis patient after 72 hrs by Sensititre YeastOne method
[15] = tested on: Sporothrix schenckii; test: Antifungal activity against Sporothrix schenckii P10012 isolate from cutaneous-lymphatic sporotrichosis patient after 72 hrs by Sensititre YeastOne method
[16] = tested on: Sporothrix schenckii; test: Antifungal activity against Sporothrix schenckii P24255 isolate from cutaneous-lymphatic sporotrichosis patient after 72 hrs by Sensititre YeastOne method
[17] = tested on: Sporothrix schenckii; test: Antifungal activity against Sporothrix schenckii P3287 isolate from cutaneous-lymphatic sporotrichosis patient after 72 hrs by Sensititre YeastOne method
[18] = tested on: Sporothrix schenckii; test: Antifungal activity against Sporothrix schenckii P24223 isolate from cutaneous-lymphatic sporotrichosis patient after 72 hrs by modified NCCLS M38-A method
[19] = tested on: Sporothrix schenckii; test: Antifungal activity against Sporothrix schenckii MRSS4 isolate from cutaneous-lymphatic sporotrichosis patient after 72 hrs by modified NCCLS M38-A method
[20] = tested on: Sporothrix schenckii; test: Antifungal activity against Sporothrix schenckii P1621 isolate from cutaneous-lymphatic sporotrichosis patient after 72 hrs by Sensititre YeastOne method
[21] = tested on: Sporothrix schenckii; test: Antifungal activity against Sporothrix schenckii P24223 isolate from cutaneous-lymphatic sporotrichosis patient after 72 hrs by Sensititre YeastOne method
[22] = tested on: Sporothrix schenckii; test: Antifungal activity against Sporothrix schenckii P26187 isolate from cutaneous-lymphatic sporotrichosis patient after 72 hrs by modified NCCLS M38-A method
[23] = tested on: Sporothrix schenckii; test: Antifungal activity against Sporothrix schenckii P14036 isolate from cutaneous-lymphatic sporotrichosis patient after 72 hrs by Sensititre YeastOne method
[24] = tested on: Sporothrix schenckii; test: Antifungal activity against Sporothrix schenckii P30019 isolate from cutaneous-lymphatic sporotrichosis patient after 72 hrs by Sensititre YeastOne method
[25] = tested on: Sporothrix schenckii; test: Antifungal activity against Sporothrix schenckii P14036 isolate from cutaneous-lymphatic sporotrichosis patient after 72 hrs by modified NCCLS M38-A method
[26] = tested on: Sporothrix schenckii; test: Antifungal activity against Sporothrix schenckii PSCC1 isolate from cutaneous-lymphatic sporotrichosis patient after 72 hrs by modified NCCLS M38-A method
[27] = tested on: Sporothrix schenckii; test: Antifungal activity against Sporothrix schenckii SSA29 isolate from cutaneous-lymphatic sporotrichosis patient after 72 hrs by Sensititre YeastOne method
[28] = tested on: Sporothrix schenckii; test: Antifungal activity against Sporothrix schenckii P20825 isolate from cutaneous-lymphatic sporotrichosis patient after 72 hrs by Sensititre YeastOne method
[29] = tested on: Sporothrix schenckii; test: Antifungal activity against Sporothrix schenckii PGAC0016 isolate from cutaneous-lymphatic sporotrichosis patient after 72 hrs by Sensititre YeastOne method
[30] = tested on: Sporothrix schenckii; test: Antifungal activity against Sporothrix schenckii P20825 isolate from cutaneous-lymphatic sporotrichosis patient after 72 hrs by modified NCCLS M38-A method
[31] = tested on: Sporothrix schenckii; test: Antifungal activity against Sporothrix schenckii P0019 isolate from cutaneous-lymphatic sporotrichosis patient after 72 hrs by modified NCCLS M38-A method
[32] = tested on: Candida parapsilosis; test: Antifungal activity against Candida parapsilosis ATCC 22019 […] after 72 hrs by Sensititre YeastOne method; settings: Lodderomyces parapsilosis, ATCC 22019, 72 h
[33] = tested on: Candida parapsilosis; test: Antifungal activity against Candida parapsilosis ATCC 22019 […] after 72 hrs by modified NCCLS M38-A method; settings: Lodderomyces parapsilosis, ATCC 22019, 72 h
[34] = tested on: Sporothrix schenckii; test: Antifungal activity against Sporothrix schenckii PSSA81 isolate from cutaneous-lymphatic sporotrichosis patient after 72 hrs by Sensititre YeastOne method
[35] = tested on: Sporothrix schenckii; test: Antifungal activity against Sporothrix schenckii P14954 isolate from cutaneous-lymphatic sporotrichosis patient after 72 hrs by Sensititre YeastOne method
[36] = tested on: Aspergillus flavus; test: Antifungal activity against Aspergillus flavus ATCC 204304 […] after 72 hrs by Sensititre YeastOne method; settings: ATCC 204304, 72 h
[37] = tested on: Pichia kudriavzevii; test: Antifungal activity against Candida krusei ATCC 6258 […] after 72 hrs by Sensititre YeastOne method; settings: ATCC 6258, 72 h
[38] = tested on: Sporothrix schenckii; test: Antifungal activity against Sporothrix schenckii PSCC1 isolate from cutaneous-lymphatic sporotrichosis patient after 72 hrs by Sensititre YeastOne method
[39] = tested on: Pichia kudriavzevii; test: Antifungal activity against Candida krusei ATCC 6258 […] after 72 hrs by modified NCCLS M38-A method; settings: ATCC 6258, 72 h
[40] = tested on: Sporothrix schenckii; test: Antifungal activity against Sporothrix schenckii P26187 isolate from cutaneous-lymphatic sporotrichosis patient after 72 hrs by Sensititre YeastOne method
[41] = tested on: Sporothrix schenckii; test: Antifungal activity against Sporothrix schenckii P30019 isolate from cutaneous-lymphatic sporotrichosis patient after 72 hrs by modified NCCLS M38-A method
[42] = tested on: Sporothrix schenckii; test: Antifungal activity against Sporothrix schenckii isolate from cutaneous-lymphatic sporotrichosis patient after 72 hrs by Sensititre YeastOne method
[43] = tested on: Sporothrix schenckii; test: Antifungal activity against Sporothrix schenckii P24255 isolate from cutaneous-lymphatic sporotrichosis patient after 72 hrs by modified NCCLS M38-A method
[44] = tested on: Sporothrix schenckii; test: Antifungal activity against Sporothrix schenckii P3287 isolate from cutaneous-lymphatic sporotrichosis patient after 72 hrs by modified NCCLS M38-A method
[45] = tested on: Sporothrix schenckii; test: Antifungal activity against Sporothrix schenckii PJRC002 isolate from cutaneous-lymphatic sporotrichosis patient after 72 hrs by modified NCCLS M38-A method
[46] = tested on: Sporothrix schenckii; test: Antifungal activity against Sporothrix schenckii P10012 isolate from cutaneous-lymphatic sporotrichosis patient after 72 hrs by modified NCCLS M38-A method

C[C@@H](c1ncncc1F)[C@](O)(Cn1cncn1)c1ccc(F)cc1F [VORICONAZOLE]
MIC [1]: 16 µg/mL (≈ 45.8 µM)
MIC [2]: 8 µg/mL (≈ 22.9 µM)
MIC [3]: 16 µg/mL (≈ 45.8 µM)
MIC [4]: 0.5 µg/mL (≈ 1.43 µM)
MIC [5]: 2 µg/mL (≈ 5.73 µM)
MIC [6]: 2 µg/mL (≈ 5.73 µM)
MIC [7]: 16 µg/mL (≈ 45.8 µM)
MIC [8]: 0.5 µg/mL (≈ 1.43 µM)
MIC [9]: 8 µg/mL (≈ 22.9 µM)
MIC50 [10]: 8 µg/mL (≈ 22.9 µM)
MIC90 [10]: 16 µg/mL (≈ 45.8 µM)
MIC [11]: 4 µg/mL (≈ 11.5 µM)
MIC [12]: 16 µg/mL (≈ 45.8 µM)
MIC [13]: 8 µg/mL (≈ 22.9 µM)
MIC [14]: 0.5 µg/mL (≈ 1.43 µM)
MIC [15]: 0.5 µg/mL (≈ 1.43 µM)
MIC [16]: 4 µg/mL (≈ 11.5 µM)
MIC [17]: 8 µg/mL (≈ 22.9 µM)
MIC [18]: 8 µg/mL (≈ 22.9 µM)
MIC [19]: 8 µg/mL (≈ 22.9 µM)
MIC [20]: 2 µg/mL (≈ 5.73 µM)
MIC [21]: 8 µg/mL (≈ 22.9 µM)
MIC [22]: 8 µg/mL (≈ 22.9 µM)
MIC [23]: 0.5 µg/mL (≈ 1.43 µM)
MIC [24]: 1 µg/mL (≈ 2.86 µM)
MIC [25]: 8 µg/mL (≈ 22.9 µM)
MIC [26]: 4 µg/mL (≈ 11.5 µM)
MIC [27]: 4 µg/mL (≈ 11.5 µM)
MIC [28]: 0.5 µg/mL (≈ 1.43 µM)
MIC [29]: 4 µg/mL (≈ 11.5 µM)
MIC [30]: 8 µg/mL (≈ 22.9 µM)
MIC [31]: 16 µg/mL (≈ 45.8 µM)
MIC [32]: 0.06 µg/mL (≈ 0.172 µM)
MIC [33]: 0.03 µg/mL (≈ 0.0859 µM)
MIC [34]: 0.5 µg/mL (≈ 1.43 µM)
MIC [35]: 8 µg/mL (≈ 22.9 µM)
MIC [36]: 0.25 µg/mL (≈ 0.716 µM)
MIC [37]: 1 µg/mL (≈ 2.86 µM)
MIC [38]: 2 µg/mL (≈ 5.73 µM)
MIC [39]: 0.12 µg/mL (≈ 0.344 µM)
MIC [40]: 4 µg/mL (≈ 11.5 µM)
MIC [41]: 4 µg/mL (≈ 11.5 µM)
MIC50 [42]: 2 µg/mL (≈ 5.73 µM)
MIC90 [42]: 8 µg/mL (≈ 22.9 µM)
MIC [43]: 8 µg/mL (≈ 22.9 µM)
MIC [44]: 16 µg/mL (≈ 45.8 µM)
MIC [45]: 4 µg/mL (≈ 11.5 µM)
MIC [46]: 16 µg/mL (≈ 45.8 µM)
